Data reported in patent publication US9040545B2, “Heterocyclyl pyrazolopyrimidine analogues as selective JAK inhibitors” (Cellzome Limited, priority 2010, dated 2015).

Key:
[1] = target: T1, Aurora B (Homo sapiens, UniProt Q96GD4); assay: Kinobeads assay, Aurora B; type: binding; conditions: for IC50: lysate of pervanadate-treated Jurkat cells, read-out: Inhibition values (IC50) Aur B
T1 construct: cell lysates from Jurkat cells (ATCC TIB-152) used; endogenous in cells; host or cells: Jurkat cells (ATCC TIB-152), treated with pervanadate
T1 sequence (Q96GD4 whole entry): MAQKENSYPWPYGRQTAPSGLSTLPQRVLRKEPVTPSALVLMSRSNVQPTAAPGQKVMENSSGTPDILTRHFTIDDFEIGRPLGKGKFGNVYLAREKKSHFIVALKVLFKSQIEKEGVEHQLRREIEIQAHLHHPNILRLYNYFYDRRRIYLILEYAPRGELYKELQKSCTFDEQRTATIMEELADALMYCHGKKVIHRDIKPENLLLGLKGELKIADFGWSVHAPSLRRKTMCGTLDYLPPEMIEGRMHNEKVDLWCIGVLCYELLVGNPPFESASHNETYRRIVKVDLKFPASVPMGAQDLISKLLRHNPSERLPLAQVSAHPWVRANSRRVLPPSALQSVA
Experimental: (§1) The compounds of the present invention as described in the previous examples were tested in a Kinobeads™ assay as described for ZAP-70 (WO-A 2007/137867). Briefly, test compounds (at various concentrations) and the affinity matrix with the immobilized aminopyrido-pyrimidine ligand 24 were added to cell lysate aliquots and allowed to bind to the proteins in the lysate sample. After the incubation time the beads with captured proteins were separated from the lysate. Bound proteins were then eluted and the presence of JAK2 and JAK3 was detected and quantified using specific antibodies in a dot blot procedure and the Odyssey infrared detection system. Dose response curves for individual kinases were generated and IC50 values calculated. Kinobeads™ assays for ZAP-70 (WO-A 2007/137867) and for kinase selectivity profiling (WO-A 2006/134056) have been previously described.
(§2) The affinity matrix was washed two times with 15 mL of 1×DP buffer containing 0.2% NP40 (IGEPAL® CA-630, Sigma, #I3021) and then resuspended in 1×DP buffer containing 0.2% NP40 (3% beads slurry).
(§3) 5×DP buffer 250 mM Tris-HCl pH 7.4, 25% Glycerol, 7.5 mM MgCl2, 750 mM NaCl, 5 mM Na3VO4; filter the 5×DP buffer through a 0.22 μm filter and store in aliquots at −80° C. The 5×DP buffer is diluted with H2O to 1×DP buffer containing 1 mM DTT and 25 mM NaF.
(§4) Stock solutions of test compounds were prepared in DMSO. In a 96 well plate 30 μL solution of diluted test compounds at 5 mM in DMSO were prepared. Starting with this solution a 1:3 dilution series (9 steps) was prepared. For control experiments (no test compound) a buffer containing 2% DMSO was used.
(§5) Cell lysate (approximately 50 mg protein per plate) was thawed in a water bath at room temperature and then stored on ice. To the thawed cell lysate 1×DP 0.8% NP40 buffer containing protease inhibitors (1 tablet for 25 mL buffer; EDTA-free protease inhibitor cocktail; Roche Diagnostics 1873580) was added in order to reach a final protein concentration of 10 mg/mL total protein. The diluted cell lysate was stored on ice. Mixed Molt4/Ramos lysate was prepared by combining one volume of Molt4 lysate and two volumes of Ramos lysate (ratio 1:2).
To a 96 well filter plate (Multiscreen HTS, BV Filter Plates, Millipore #MSBVN1250) were added per well: 100 μL affinity matrix (3% beads slurry), 3 μL of compound solution, and 50 μL of diluted lysate. Plates were sealed and incubated for 3 hours in a cold room on a plate shaker (Heidolph tiramax 1000) at 750 rpm. Afterwards the plate was washed 3 times with 230 μL washing buffer (1×DP 0.4% NP40). The filter plate was placed on top of a collection 1 plate (Greiner bio-one, PP-microplate 96 well V-shape, 65120) and the beads were then eluted with 20 μL of sample buffer (100 mM Tris, pH 7.4, 4% SDS, 0.00025% bromophenol blue, 20% glycerol, 50 mM DTT). The eluate was frozen quickly at −80° C. and stored at −20° C.
The kinases in the eluates were detected and quantified by spotting on nitrocellulose membranes and using a first antibody directed against the kinase of interest and a fluorescently labelled secondary antibody (anti-rabbit IRDye™ antibody 800 (Licor, #926-32211). The Odyssey Infrared Imaging system from LI-COR Biosciences (Lincoln, Nebr., USA) was operated according to instructions provided by the manufacturer (Schutz-Geschwendener et al, 2004. Quantitative, two-color Western blot detection with infrared fluorescence. Published May 2004 by LI-COR Biosciences, www.licor.com).
After spotting of the eluates the nitrocellulose membrane (BioTrace NT; PALL, #BTNT30R) was first blocked by incubation with Odyssey blocking buffer (LICOR, 927-40000) for 1 hour at room temperature. Blocked membranes were then incubated for 16 hours at the temperature shown in Table 5 with the first antibody diluted in Odyssey blocking buffer (LICOR #927-40000). Afterwards the membrane was washed twice for 10 minutes with PBS buffer containing 0.2% Tween 20 at room temperature. […]

[2] = target: T2, JAK2 (Homo sapiens, UniProt O60674); assay: Kinobeads assay, JAK2; type: binding; conditions: mixed Molt4/Ramos lysate, read-out: Inhibition values (IC50) JAK2
T2 construct: endogenous in cells; host or cells: mixed Molt4/Ramos lysate (1:2)
T2 sequence (O60674 whole entry): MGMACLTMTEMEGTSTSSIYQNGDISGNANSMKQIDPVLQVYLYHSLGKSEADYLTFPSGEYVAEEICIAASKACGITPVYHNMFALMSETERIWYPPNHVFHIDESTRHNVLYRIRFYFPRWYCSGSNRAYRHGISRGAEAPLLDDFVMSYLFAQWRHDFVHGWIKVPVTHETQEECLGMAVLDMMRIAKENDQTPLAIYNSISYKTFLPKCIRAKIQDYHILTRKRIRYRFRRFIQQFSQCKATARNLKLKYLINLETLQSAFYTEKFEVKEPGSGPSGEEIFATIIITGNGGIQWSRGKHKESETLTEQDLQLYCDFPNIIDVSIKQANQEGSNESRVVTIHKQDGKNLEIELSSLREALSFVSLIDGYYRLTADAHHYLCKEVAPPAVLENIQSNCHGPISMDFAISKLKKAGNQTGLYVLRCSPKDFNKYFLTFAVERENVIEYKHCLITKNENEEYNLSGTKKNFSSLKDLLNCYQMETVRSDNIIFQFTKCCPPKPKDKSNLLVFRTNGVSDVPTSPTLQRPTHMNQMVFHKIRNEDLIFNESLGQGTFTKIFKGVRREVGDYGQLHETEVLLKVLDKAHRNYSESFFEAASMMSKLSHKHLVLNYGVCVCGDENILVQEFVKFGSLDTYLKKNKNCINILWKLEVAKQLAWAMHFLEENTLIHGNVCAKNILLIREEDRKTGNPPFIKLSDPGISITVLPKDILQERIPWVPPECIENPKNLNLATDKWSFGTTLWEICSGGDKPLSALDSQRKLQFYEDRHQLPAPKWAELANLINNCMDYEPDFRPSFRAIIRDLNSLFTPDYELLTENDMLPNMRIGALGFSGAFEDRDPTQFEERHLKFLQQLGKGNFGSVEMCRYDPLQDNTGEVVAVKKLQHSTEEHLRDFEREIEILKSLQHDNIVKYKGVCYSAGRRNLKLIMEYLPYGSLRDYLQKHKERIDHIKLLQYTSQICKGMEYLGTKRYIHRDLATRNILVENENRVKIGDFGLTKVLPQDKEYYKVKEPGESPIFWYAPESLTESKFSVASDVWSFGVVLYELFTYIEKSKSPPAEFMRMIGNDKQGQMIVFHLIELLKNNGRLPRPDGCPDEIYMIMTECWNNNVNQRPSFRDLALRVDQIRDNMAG
Experimental: as §1, §2, §3, §4
Molt4 cells (ATCC catalogue number CRL-1582) and Ramos cells (ATCC catalogue number CRL-1596) were grown in 1 L Spinner flasks (Integra Biosciences, #182101) in suspension in RPMI 1640 medium (Invitrogen, #21875-034) supplemented with 10% Fetal Bovine Serum (Invitrogen) at a density between 0.15×106 and 1.2×10^6 cells/mL. Cells were harvested by centrifugation, washed once with 1×PBS buffer (Invitrogen, #14190-094) and cell pellets were frozen in liquid nitrogen and subsequently stored at −80° C. Cells were homogenized in a Potter S homogenizer in lysis buffer: 50 mM Tris-HCl, 0.8% NP40, 5% glycerol, 150 mM NaCl, 1.5 mM MgCl2, 25 mM NaF, 1 mM sodium vanadate, 1 mM DTT, pH 7.5. One complete EDTA-free tablet (protease inhibitor cocktail, Roche Diagnostics, 1873580) per 25 mL buffer was added. The material was dounced 10 times using a mechanized POTTER S, transferred to 50 mL falcon tubes, incubated for 30 minutes on ice and spun down for 10 minutes at 20,000 g at 4° C. (10,000 rpm in Sorvall SLA600, precooled). The supernatant was transferred to an ultracentrifuge (UZ)-polycarbonate tube (Beckmann, 355654) and spun for 1 hour at 100,000 g at 4° C. (33.500 rpm in Ti50.2, precooled). The supernatant was transferred again to a fresh 50 mL falcon tube, the protein concentration was determined by a Bradford assay (BioRad) and samples containing 50 mg of protein per aliquot were prepared. The samples were immediately used for experiments or frozen in liquid nitrogen and stored frozen at −80° C.
as §5
To a 96 well filter plate (Multiscreen HTS, BV Filter Plates, Millipore #MSBVN1250) were added per well: 100 μL affinity matrix (3% beads slurry), 3 μL of compound solution, and 50 μL of diluted lysate. […]

| Compound | JAK3/AurB Fold Selectivity [1] | IC50 [1] | IC50 [2] |
| --- | --- | --- | --- |
| O=C(CCn1cc(Nc2ncc3cnn(Cc4cccc(N5CCOCC5)c4)c3n2)cn1)NC1CC1 [Example 35, N-Cyclopropyl-3-(4-((1-(3-morpholinobenzyl)-1H-pyrazolo[3,4-d]pyrimidin-6-yl)amino)-1H-pyrazol-1-yl)propanamide] | 10-50 Fold | 1000 to 10000 nM | ≥ 10000 nM |
| Cn1cc(Nc2ncc3cnn(Cc4cccc(N5CCNCC5=O)c4)c3n2)cn1 [Example 36, 1-(3-((6-((1-Methyl-1H-pyrazol-4-yl)amino)-1H-pyrazolo[3,4-d]pyrimidin-1-yl)methyl)phenyl)piperazin-2-one] | 10-50 Fold | 1000 to 10000 nM | ≥ 10000 nM |
| Cn1cc(Nc2ncc3cnn(Cc4cc(N5CCOCC5)cc(F)c4F)c3n2)cn1 [Example 37, 1-(2,3-Difluoro-5-morpholinobenzyl)-N-(1-methyl-1H-pyrazol-4-yl)-1H-pyrazolo[3,4-d]pyrimidin-6-amine] | >50 Fold | 1000 to 10000 nM | ≥ 10000 nM |
| Cn1cc(Nc2ncc3cnn(Cc4c(F)ccc(N5CCOCC5)c4F)c3n2)cn1 [Example 38, 1-(2,6-Difluoro-3-morpholinobenzyl)-N-(1-methyl-1H-pyrazol-4-yl)-1H-pyrazolo[3,4-d]pyrimidin-6-amine] | 10-50 Fold | 100 to 1000 nM | ≥ 10000 nM |
| OCCn1cc(Nc2ncc3cnn(Cc4cccc(N5CCOCC5)c4F)c3n2)cn1 [Example 39, 2-(4-((1-(2-Fluoro-3-morpholinobenzyl)-1H-pyrazolo[3,4-d]pyrimidin-6-yl)amino)-1H-pyrazol-1-yl)ethanol] | 10-50 Fold | 100 to 1000 nM | 1000 to 10000 nM |
| Cn1cc(Nc2ncc3cnn(Cc4cccc(N5CCOCC5=O)c4F)c3n2)cn1 [Example 40, 4-(2-Fluoro-3-((6-((1-methyl-1H-pyrazol-4-yl)amino)-1H-pyrazolo[3,4-d]pyrimidin-1-yl)methyl)phenyl)morpholin-3-one] | 10-50 Fold | 100 to 1000 nM | 1000 to 10000 nM |
| CNCC1(Cn2cc(Nc3ncc4cnn(Cc5cccc(N6CCOCC6)c5)c4n3)cn2)COC1 [Example 41, N-(1-((3-((Methylamino)methyl)oxetan-3-yl)methyl)-1H-pyrazol-4-yl)-1-(3-morpholinobenzyl)-1H-pyrazolo[3,4-d]pyrimidin-6-amine] | 10-50 Fold | 1000 to 10000 nM | ≥ 10000 nM |
| Cn1cc(Nc2ncc3cnn(Cc4cccc(N5CC6(COC6)C5)c4)c3n2)cn1 [Example 89, 1-(3-(2-oxa-6-azaspiro[3.3]heptan-6-yl)benzyl)-N-(1-methyl-1H-pyrazol-4-yl)-1H-pyrazolo[3,4-d]pyrimidin-6-amine] | >50 Fold | 1000 to 10000 nM | ≥ 10000 nM |
| Cn1cc(Nc2ncc3cnn(Cc4cc(F)cc(N5CC6(COC6)C5)c4)c3n2)cn1 [Example 90, 1-(3-fluoro-5-(2-oxa-6-azaspiro[3.3]heptan-6-yl)benzyl)-N-(1-methyl-1H-pyrazol-4-yl)-1H-pyrazolo[3,4-d]pyrimidin-6-amine] | >50 Fold | 1000 to 10000 nM | 1000 to 10000 nM |
| Cn1cc(Nc2ncc3cnn(Cc4cccc(N5CC6(COC6)C5)c4F)c3n2)cn1 [Example 91, 1-(2-fluoro-3-(2-oxa-6-azaspiro[3.3]heptan-6-yl)benzyl)-N-(1-methyl-1H-pyrazol-4-yl)-1H-pyrazolo[3,4-d]pyrimidin-6-amine] | >50 Fold | 1000 to 10000 nM | 1000 to 10000 nM |
| Cn1cc(Nc2ncc3cnn(Cc4cc(F)cc(N5CCNCC5)c4)c3n2)cn1 [Example 92, 1-(3-fluoro-5-(piperazin-1-yl)benzyl)-N-(1-methyl-1H-pyrazol-4-yl)-1H-pyrazolo[3,4-d]pyrimidin-6-amine] | >50 Fold | 100 to 1000 nM | 1000 to 10000 nM |
